Measured values taken from US9079977B2, “Anti-trypanosomal peptides and uses thereof” (priority 2009, dated 2015).
Where a SMILES comes first, the peptide text is derived from it.

Assays:
[1] = test system: Human embryonic kidney cells (HEK); assay: Mammalian cell viability assay (trypan blue exclusion), Example 2; assay type: cell-based; details: 80-160 μM, 2 h at 37° C.
Experimental: (§1) Mammalian cell viability and hemolysis assays. Human embryonic kidney cells (HEK) (ATCC CRL-1573) and LNCaP prostate cancer cells (ATCC CRL-1740) were utilized for cell viability assays. Human embryonic kidney cells were cultured in Dulbecco's Modified Eagles Medium, high glucose (Thermo Scientific, cat #SH30243.01) with 10% fetal bovine serum at 37° C. and 5% CO2. Prostate cancer cells were cultured in RPM-1640 medium (Invitrogen, cat #A10491-01) with 10% fetal bovine serum at 37° C. and 5% CO2. In both cases, assays were performed by aliquoting cells into 96 well plates at approximately 60% confluency and allowing the cells to adhere for two hours. Cells were then incubated with serial dilutions of SHP-1, or the relevant control, in the corresponding media for two hours at 37° C. Cell viability was determined by the ability of live cells to exclude trypan blue. The cells were incubated with 0.1% trypan blue for 10 minutes and examined microscopically for cytoplasmic staining. The potential for SHP-1 to induce hemolysis was assayed by monitoring hemoglobin (Hb) release from freshly collected human erythrocytes that had been washed and incubated with SHP-1 in PBS. The Hb concentration of the supernatant was determined by the absorbance at 412 nm and compared to 100% hemolysis acquired by hypotonic lysis. […]

[2] = not told
Experimental: Calcein release assays. […] Briefly, liposomes were diluted 1:1000 into 50 mM Tris, pH 7.0 and calcein fluorescence was monitored at 513 nm when excited at 484 nm. The percent calcein release was calculated relative to the 100% fluorescence intensity, achieved by the addition of 0.01% Triton X-100.

[3] = test system: LNCaP prostate cancer cells; assay: Mammalian cell viability assay (trypan blue exclusion), Example 2; assay type: cell-based, human; details: 80-160 μM, 2 h at 37° C.
Experimental: as §1

[4] = test system: plasma membrane of live BSF T. b. brucei; assay: Anisotropy assays with DPH and TMA-DPH, Example 4; assay type: cell-based, Trypanosoma brucei brucei; details: 37° C.
Experimental: Anisotropy Assays. The plasma membrane rigidity of live T. b. brucei was determined by measuring the fluorescence depolarization of diphenyl-1,3,5-hexatriene p-toluenesulfonate (DPH) or 1-(4-trimethylammoniumphenyl)-6-diphenyl-1,3,5-hexatriene p-toluenesulfonate (TMA-DPH; Invitrogen T204). Cells were washed 3 times with and resuspended in PBS at a density of 3×10^6 cells/ml. The anisotropic probes were added to a final concentration of […] and allowed to intercalate into the cell membrane for one hour in the dark. Anisotropic values were acquired via the software function of a PerkinElmer Life Sciences LS55 spectrofluorometer. Samples were excited at 358 nm, and emission was read at 430 nm, both with 10-nm slit widths. Temperature was maintained at 37° C. by means of the PerkinElmer LS55 Biokinetics accessory. Data were corrected for light scattering with an unlabeled sample of cells, and anisotropy was calculated according to the equation r=(IVV−GIVH)/(IVV+2GIVH), where r is the anisotropy value, IVV is the emission intensity acquired with the excitation- and emission-polarizing filters set vertically, G is the instrument correction factor, and IVH is the emission intensity acquired with the excitation-polarizing filter set vertically and the emission-polarizing filter set horizontally. All assays were conducted at 37° C. […]

BSF T. b. brucei [5] = assay: Trypanosome motility by video microscopy, Example 4; assay type: cell-based, Trypanosoma brucei brucei; details: 40 μM peptide, 37° C.
Experimental: Trypanosome motility. All images and videos were acquired with an Axio Observer Z1 equipped with an AxioCam MRm controlled by AxioVision 4.6 software. Videos were acquired with live cells at a density of 1×10^7 cells/ml in HMI 9 media with 10% fetal bovine serum, incubated with 40 µM SHP-1 at 37° C. Videos were recorded at magnification 63× with 50-ms acquisition times. The motility of BSF trypanosomes was scored visually from video playback of trypanosomes scanned throughout 10 μl aliquots. Data is shown as the average of triplicate trials with standard deviations.

BSF T. b. brucei [6] = assay: Trypanosome killing assay, Example 4; assay type: cell-based, Trypanosoma brucei brucei; details: two hour killing assay, 37° C.
Experimental: Trypanosome Killing Assays. Light microscopy based trypanosome killing assays were performed as previously described in detail (Harrington et al., 2010, J Biol Chem; 285(37):28659-66; Widener et al., 2007, PLoS Pathog; 3(9):1250-61; Shiflett et al., 2007, J Eukaryot Microbiol; 54(1):18-21; and Hajduk et al., 1989, J Biol Chem; 264(9):5210-7). Metacyclic T. b. brucei TREU 667 were obtained from dissection of the salivary glands of infected tsetse flies. Newly hatched Glossina morsitans morsitans (24-48 hours post eclosion) were fed defibrinated horse blood containing 2×10^6 ml^−1 trypanosomes and maintained at 25° C. in 75% relative humidity and fed maintenance blood meals three times per week. Following day 20-30, flies were harvested and salivary glands were dissected out and washed in HMI 9 media containing 10% fetal bovine serum. Metacyclic cells were collected via centrifugation and maintained in HMI 9 media with 10% fetal bovine serum at 37° C. in 5% CO2 until use. Killing assays were conducted with 1×10^4 cells/ml in HMI 9 media containing 10% fetal bovine serum. Trypanosoma vivax and T. congolense were grown from stabilites in donor ICR mouse (Harlan, United Kingdom). Parasites were harvested from mice by terminal exsanguination and passage of infected blood through a small anion exchange column. Cells were maintained in HMI 9 with 20% goat serum at 37° C. in 5% CO2 until use. Killing assays were performed with 1×10^7 cells/ml in HMI 9 media with either 20% goat serum, in the case of T. vivax and T congolense, and 10% fetal bovine serum, for T. b. brucei. Cells were incubated at 37° C. for 2 hours and dead parasites were scored visually. All were conducted in at least duplicate, and data points are the averages with standard deviations.

BSF T. b. brucei [7] = assay: Flow cytometry binding of FITC-labeled SHP; assay type: cell-based, Trypanosoma brucei brucei; details: 8 μM FITC-labeled peptide
Experimental: Flow Cytometry. Peptide binding to BSF T. b. brucei was monitored by flow cytometry. Binding assays were performed with 3×10^6 cells/ml in HMI 9 plus 10% fetal bovine serum at 25° C. FITC-labeled SHP-1 or SHP-3 was added to a final concentration of 8 μM and 50,000 cells were immediately counted on a CyAn ADP flow cytometer (Dako). Data were analyzed with FlowJo software (TreeStar Inc.).

CC[C@H](C)[C@H](NC(=O)[C@@H](NC(=O)[C@H](C)NC(=O)CNC(=O)[C@H](CC(C)C)NC(=O)[C@H](CC(=O)O)NC(=O)[C@@H](N)CO)C(C)C)C(=O)N[C@@H](CO)C(=O)N[C@@H](CC(C)C)C(=O)N[C@@H](CC(C)C)C(=O)N[C@@H](CC(C)C)C(=O)N[C@@H](Cc1c[nH]c2ccccc12)C(=O)NCC(=O)N[C@@H](CCCNC(=N)N)C(=O)N[C@@H](CCC(N)=O)C(=O)N[C@@H](CC(C)C)C(=O)N[C@@H](Cc1ccccc1)C(=O)N[C@@H](C)C(=O)O [SHP-1, SDLGAVISLLLWGRQLFA] (H-SDLGAVISLLLWGRQLFA-OH; N-terminus and C-terminus assumed)
cell death of HEK cells (morphology, trypan blue exclusion) [1]: did not result in cell death | permeabilization of homogenous symmetric saturated PC liposomes [2]: not permeabilized | permeabilization of symmetric 15:0 PC or DPPC liposomes above Tm [2]: resulted in sensitivity to permeabilization | cell death of LNCaP cells (morphology, trypan blue exclusion) [3]: did not result in cell death

FHQIWAALLYFYGIILNSIY (amino acid sequence of small hydrophobic peptide -3 (SHP-3)) [Small hydrophobic peptide 3, derived from an apolipoprotein]
rigidity of the interfacial region of the plasma membrane (TMA-DPH) [4]: increased the rigidity of the interfacial region of the plasma membrane | motility phenotype (hyperactivation, constriction) (BSF T. b. brucei [5]): does cause initial hyperactivation of BSF T. b. brucei, however subsequent constriction of motility does not occur | killing of BSF T. brucei (trypanocidal activity) (BSF T. b. brucei [6]): no killing was seen | binding to BSF T. brucei (BSF T. b. brucei [7]): binding to BSF T. brucei
